The supplement of paper PMC4862054

What was measured:
Details in all cases: incubation time: 72 h
HCC1143 = test: normalised response (% of control), CellTox Green; higher = less cell death (100 = DMSO, 0 = benzethonium chloride kill control)
Procedure, shortened: (§1)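 A 20 µl suspension of breast cancer cells was seeded into each well of 384-well plates containing compound at 5 concentrations in 10-fold steps over a compound-specific 10,000-fold range. After 72 h incubation, CellTox Green fluorescence (485/520 nm) was read first, and CellTiter-Glo luminescence was read after 10 min at room temperature. Each plate was normalised against 0.1 % DMSO (100) and a positive kill control (0), and each value is the normalised signal at one concentration.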

HDQ-P1 [1] = test: as above
Procedure, shortened: as §1

CAL-85-1 [2] = test: as above
Procedure, shortened: as §1

MDA-MB-468 = test: as above
Procedure, shortened: as §1

CAL-148 [3] = test: as above
Procedure, shortened: as §1

HCC1599 = test: as above
Procedure, shortened: as §1

MDA-MB-436 = test: as above
Procedure, shortened: as §1

CAL-51 [4] = test: as above
Procedure, shortened: as §1

BT-474 = test: as above
Procedure, shortened: as §1

MCF-10A = test: as above
Procedure, shortened: as §1

CAL-120 = test: as above
Procedure, shortened: as §1

DU-4475 [5] = test: as above
Procedure, shortened: as §1

MDA-MB-453 [6] = test: as above
Procedure, shortened: as §1

BT-549 = test: as above
Procedure, shortened: as §1

MFM-223 = test: as above
Procedure, shortened: as §1

HDQ-P1 [7] = test: normalised viability (% of control), CellTiter-Blue; higher = more viable cells (about 100 = DMSO control)
Protocol: (§2)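 DSRT, CellTiter-Blue viability, 72 h incubation. Signal is normalised to DMSO and benzethonium chloride controls. Value is the normalised response at dose 7.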

CAL-85-1 [8] = test: as above
Protocol: as §2

CAL-148 [9] = test: as above
Protocol: as §2

CAL-51 [10] = test: as above
Protocol: as §2

DU-4475 [11] = test: as above
Protocol: as §2

MDA-MB-453 [12] = test: as above
Protocol: as §2

MDA-MB-231 = test: normalised response (% of control), CellTox Green; higher = less cell death (100 = DMSO, 0 = benzethonium chloride kill control)
Procedure, shortened: as §1

HCC1937 = test: as above
Procedure, shortened: as §1

Hs578T = test: as above
Procedure, shortened: as §1

SMILES | normalised response (HCC1143) | normalised response (HDQ-P1 [1]) | normalised response (CAL-85-1 [2]) | normalised response (MDA-MB-468) | normalised response (CAL-148 [3]) | normalised response (HCC1599) | normalised response (MDA-MB-436) | normalised response (CAL-51 [4]) | normalised response (BT-474) | normalised response (MCF-10A) | normalised response (CAL-120) | normalised response (DU-4475 [5]) | normalised response (MDA-MB-453 [6]) | normalised response (BT-549) | normalised response (MFM-223) | normalised viability (HDQ-P1 [7]) | normalised viability (CAL-85-1 [8]) | normalised viability (CAL-148 [9]) | normalised viability (CAL-51 [10]) | normalised viability (DU-4475 [11]) | normalised viability (MDA-MB-453 [12]) | normalised response (MDA-MB-231) | normalised response (HCC1937) | normalised response (Hs578T)
COc1cc([C@@H]2c3cc4c(cc3[C@@H](O[C@@H]3O[C@@H]5CO[C@@H](C)O[C@H]5[C@H](O)[C@H]3O)[C@H]3COC(=O)[C@H]23)OCO4)cc(OC)c1O [Etoposide] (1000 nM) | 120% | 95.6% | 99.6% | 102% | 30.9% | 97% | 13.2% | 50.3% | 101% | 110% | 95.7% | 93.7% | 94.8% | 109% | 103% | 88.8% | 90.8% | 63.4% | 35.4% | 12.3% | 93.4% | – | – | –
O=P1(NCCCl)OCCCN1CCCl (configuration not stated) [Ifosfamide] (1000 nM) | 107% | 67.6% | 100% | 139% | 100% | 98.7% | 58.7% | 95.4% | 98.2% | 90% | 99.5% | 95.8% | 107% | 107% | 94.9% | 103% | 81.2% | 101% | 114% | 101% | 112% | 96.2% | 70.1% | 89.2%
CC1(C)NC(=O)N(c2ccc([N+](=O)[O-])c(C(F)(F)F)c2)C1=O [Nilutamide] (1000 nM) | 72.8% | 88.5% | 103% | 115% | 92% | 107% | 103% | 103% | 102% | 115% | 101% | 103% | 94% | 123% | 95.9% | 123% | 94.2% | 108% | 99.7% | 102% | 108% | 115% | 98% | 100%
Cc1ccc(C(=O)Nc2ccc(CN3CCN(C)CC3)c(C(F)(F)F)c2)cc1C#Cc1cnc2cccnn12 [Ponatinib] (100 nM) | 107% | 95.6% | 105% | 96.7% | 104% | 97.4% | 102% | 99% | 97.9% | 72.1% | 99.1% | 99.3% | 105% | 92% | 98.7% | 92.8% | 89.3% | 94.8% | 82.9% | 104% | 77.7% | 97.6% | 92.2% | –
Cn1c(Nc2ccc(C(F)(F)F)cc2)nc2cc(Oc3ccnc(-c4ncc(C(F)(F)F)[nH]4)c3)ccc21 [RAF265] (100 nM) | 96.9% | 113% | 86.3% | 115% | 107% | 98.6% | 94.9% | 100% | 100% | 107% | 100% | 105% | 105% | – | 102% | 74.6% | 80.5% | 101% | 86.1% | 104% | 83.7% | 114% | 109% | 107%
N[C@@H](CSC(c1ccccc1)(c1ccccc1)c1ccccc1)C(=O)O [S-trityl-L-cysteine] (4000 nM) | 87% | 62.2% | 100% | 136% | 98.3% | 95.5% | 105% | 105% | 101% | 116% | 97.9% | 101% | 101% | 104% | – | 86.5% | 98.3% | 117% | 85.1% | 103% | 94.3% | – | 85.1% | 106%
CN(N=O)C(=O)N[C@@H](C=O)[C@@H](O)[C@H](O)[C@H](O)CO [Streptozocin] (1000 nM) | 113% | 92.3% | 110% | 90.8% | – | 103% | 106% | 95.2% | 97.2% | 53.9% | 106% | 107% | 108% | 99.5% | 98.3% | 95.5% | 91.2% | 98.6% | 103% | 112% | 105% | 96.8% | 99.3% | 99%
O=C1CCC(N2C(=O)c3ccccc3C2=O)C(=O)N1 (configuration not stated) [Thalidomide] (1000 nM) | 99% | 111% | 108% | 130% | 97.4% | 98.2% | 109% | 111% | 97.5% | – | 101% | 98.5% | 103% | – | 100% | 81.1% | 99.4% | 116% | 84.8% | 97% | 103% | 63.5% | 99% | 97.6%
